These results are taken from patent US10377753B2, “Substituted 4-azaindoles and their use as GluN2B receptor modulators” (Janssen Pharmaceutica NV, priority 2015, dated 2019).

Structures are written as SMILES.

cloned human NR1/NR2B ion channels, sequence (Q13224 27-1484, other chains not shown): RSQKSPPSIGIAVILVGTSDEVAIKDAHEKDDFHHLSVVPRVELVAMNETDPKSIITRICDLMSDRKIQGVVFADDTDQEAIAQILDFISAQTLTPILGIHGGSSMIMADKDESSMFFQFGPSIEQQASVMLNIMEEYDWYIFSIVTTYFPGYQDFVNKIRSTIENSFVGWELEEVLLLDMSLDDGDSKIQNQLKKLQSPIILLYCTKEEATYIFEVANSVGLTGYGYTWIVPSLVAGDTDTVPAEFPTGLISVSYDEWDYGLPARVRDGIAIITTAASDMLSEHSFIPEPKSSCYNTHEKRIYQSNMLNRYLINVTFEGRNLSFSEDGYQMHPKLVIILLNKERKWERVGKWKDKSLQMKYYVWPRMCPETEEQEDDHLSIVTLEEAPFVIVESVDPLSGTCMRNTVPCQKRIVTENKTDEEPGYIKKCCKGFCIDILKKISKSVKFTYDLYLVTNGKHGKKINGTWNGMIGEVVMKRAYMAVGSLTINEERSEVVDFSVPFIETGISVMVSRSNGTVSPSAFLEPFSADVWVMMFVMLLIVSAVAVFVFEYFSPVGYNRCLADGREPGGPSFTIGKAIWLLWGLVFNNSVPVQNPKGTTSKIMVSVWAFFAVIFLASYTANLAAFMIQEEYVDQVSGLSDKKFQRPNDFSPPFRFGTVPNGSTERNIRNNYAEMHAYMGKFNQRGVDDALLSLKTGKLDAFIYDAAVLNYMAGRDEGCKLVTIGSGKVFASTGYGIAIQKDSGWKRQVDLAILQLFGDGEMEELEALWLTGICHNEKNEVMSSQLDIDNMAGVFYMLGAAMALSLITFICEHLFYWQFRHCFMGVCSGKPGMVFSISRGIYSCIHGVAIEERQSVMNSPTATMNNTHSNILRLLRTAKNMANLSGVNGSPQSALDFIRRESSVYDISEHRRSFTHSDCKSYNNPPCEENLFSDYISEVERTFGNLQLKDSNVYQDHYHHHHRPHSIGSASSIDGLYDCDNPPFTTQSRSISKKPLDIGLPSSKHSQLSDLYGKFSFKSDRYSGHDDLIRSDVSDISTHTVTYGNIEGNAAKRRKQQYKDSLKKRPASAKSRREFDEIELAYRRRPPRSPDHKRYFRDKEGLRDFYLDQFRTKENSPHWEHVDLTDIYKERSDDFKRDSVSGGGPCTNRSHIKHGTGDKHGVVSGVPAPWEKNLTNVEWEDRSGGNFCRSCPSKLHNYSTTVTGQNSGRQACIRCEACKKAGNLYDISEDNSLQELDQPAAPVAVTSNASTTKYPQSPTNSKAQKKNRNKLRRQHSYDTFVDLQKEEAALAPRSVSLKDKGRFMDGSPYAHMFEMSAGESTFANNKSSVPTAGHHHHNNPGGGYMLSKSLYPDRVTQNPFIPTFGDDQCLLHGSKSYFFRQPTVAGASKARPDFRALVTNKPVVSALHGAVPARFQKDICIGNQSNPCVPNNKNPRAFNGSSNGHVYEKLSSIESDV

The assay concerns the target cloned human NR1/NR2B ion channels (Homo sapiens (Human), UniProt Q05586+Q13224). Description: HNR2BC: effects of test articles on cloned human NR1/NR2B ion channels expressed in mammalian cells (FLIPR calcium flux). Format: cell-based. As to conditions: cloned human NR1/NR2B ion channels, Table 5. In a few lines:
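Compounds were added to dye-loaded cells for 5 min with fluorescence monitored for agonism, followed by co-agonists (glutamate ~EC80, glycine 10 μM saturating) for 5 min. Cells stably expressed inducible human NR1/NR2B, and the buffer was pH 7.4. The FLIPR Ca2+ flux signal was normalized against control wells.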
For orientation: A change in cytosolic calcium serves as a functional read-out for many receptors and channels.
For the compound `Cc1cccc(-c2cnc3c(Cl)cn(CC(=O)N(C)C)c3c2)c1` [Example 515, 2-[3-Chloro-6-(m-tolyl)pyrrolo[3,2-b]pyridin-1-yl]-N,N-dimethyl-acetamide], the IC50 – broadly, the concentration at which inhibition is half-maximal – is 100 nM.
Turning to `CN(C)C(=O)Cn1cc(Cl)c2ncc(-c3ccc(F)c(C(F)(F)F)c3)cc21` [Example 516, 2-[3-Chloro-6-[4-fluoro-3-(trifluoromethyl)phenyl]pyrrolo[3,2-b]pyridin-1-yl]-N,N-dimethyl-acetamide], the IC50 was 200 nM.
Under `CN(C)C(=O)Cn1cc(Cl)c2ncc(-c3cccc(C(F)(F)F)c3F)cc21` [Example 517, 2-[3-Chloro-6-[2-fluoro-3-(trifluoromethyl)phenyl]pyrrolo[3,2-b]pyridin-1-yl]-N,N-dimethyl-acetamide] stands 100 nM; under `CN(C)C(=O)Cn1cc(Cl)c2ncc(-c3ccc(F)c(F)c3F)cc21` [Example 518, 2-[3-Chloro-6-(2,3,4-trifluorophenyl)pyrrolo[3,2-b]pyridin-1-yl]-N,N-dimethyl-acetamide], 63.1 nM; under `Cc1c(F)ccc(-c2cnc3c(Cl)cn(CC(=O)N(C)C)c3c2)c1F` [Example 519, 2-[3-Chloro-6-(2,4-difluoro-3-methyl-phenyl)pyrrolo[3,2-b]pyridin-1-yl]-N,N-dimethyl-acetamide], 63.1 nM.
Under `CN(C)C(=O)Cn1cc(Cl)c2ncc(-c3ccc(F)c(Cl)c3)cc21` [Example 520, 2-[3-Chloro-6-(3-chloro-4-fluoro-phenyl)pyrrolo[3,2-b]pyridin-1-yl]-N,N-dimethyl-acetamide] stands 79.4 nM.
As for `O=C(Cn1cc(Cl)c2ncc(-c3ccccc3F)cc21)N1CCC1` [Example 521, 1-(Azetidin-1-yl)-2-[3-chloro-6-(2-fluorophenyl)pyrrolo[3,2-b]pyridin-1-yl]ethanone], the IC50 was 126 nM.
For the compound `Cc1cccc(-c2cnc3c(Cl)cn(CC(=O)N4CCC4)c3c2)c1F` [Example 522, 1-(Azetidin-1-yl)-2-[3-chloro-6-(2-fluoro-3-methyl-phenyl)pyrrolo[3,2-b]pyridin-1-yl]ethanone], the IC50 was 79.4 nM.
For `O=C(Cn1cc(Cl)c2ncc(-c3ccc(F)c(C(F)(F)F)c3)cc21)N1CCC1` [Example 523, 1-(Azetidin-1-yl)-2-[3-chloro-6-[4-fluoro-3-(trifluoromethyl)phenyl]pyrrolo[3,2-b]pyridin-1-yl]ethanone] the value was 158 nM; for `O=C(Cn1cc(Cl)c2ncc(-c3cccc(C(F)(F)F)c3F)cc21)N1CCC1` [Example 524, 1-(Azetidin-1-yl)-2-[3-chloro-6-[2-fluoro-3-(trifluoromethyl)phenyl]pyrrolo[3,2-b]pyridin-1-yl]ethanone], 79.4 nM; for `Cc1c(F)ccc(-c2cnc3c(Cl)cn(CC(=O)N4CCC4)c3c2)c1F` [Example 525, 1-(Azetidin-1-yl)-2-[3-chloro-6-(2,4-difluoro-3-methyl-phenyl)pyrrolo[3,2-b]pyridin-1-yl]ethanone], 50.1 nM.
For the compound `O=C(Cn1cc(Cl)c2ncc(-c3cccc(Cl)c3)cc21)N1CCC1` [Example 526, 1-(Azetidin-1-yl)-2-[3-chloro-6-(3-chlorophenyl)pyrrolo[3,2-b]pyridin-1-yl]ethanone], the IC50 is 63.1 nM.
For `O=C(Cn1cc(Cl)c2ncc(-c3ccc(F)c(Cl)c3)cc21)N1CCC1` [Example 527, 1-(Azetidin-1-yl)-2-[3-chloro-6-(3-chloro-4-fluoro-phenyl)pyrrolo[3,2-b]pyridin-1-yl]ethanone] the value was 50.1 nM; for `O=C(Cn1cc(Cl)c2ncc(-c3cccc(Cl)c3F)cc21)N1CCC1` [Example 528, 1-(Azetidin-1-yl)-2-[3-chloro-6-(3-chloro-2-fluoro-phenyl)pyrrolo[3,2-b]pyridin-1-yl]ethanone], 39.8 nM; for `O=C(Cn1cc(Cl)c2ncc(-c3cccc(C(F)F)c3)cc21)N1CCC1` [Example 529, 1-(Azetidin-1-yl)-2-[3-chloro-6-[3-(difluoromethyl)phenyl]pyrrolo[3,2-b]pyridin-1-yl]ethanone], 79.4 nM.
Under `O=C(Cn1cc(Cl)c2ncc(-c3cccc(F)c3)cc21)N1CCC1` [Example 530, 1-(Azetidin-1-yl)-2-[3-chloro-6-(3-fluorophenyl)pyrrolo[3,2-b]pyridin-1-yl]ethanone] stands 39.8 nM; under `CN(C)C(=O)Cn1cc(Cl)c2ncc(-c3cccc(F)c3)cc21` [Example 531, 2-[3-Chloro-6-(3-fluorophenyl)pyrrolo[3,2-b]pyridin-1-yl]-N,N-dimethyl-acetamide], 50.1 nM; under `O=C(Cn1cc(Cl)c2ncc(-c3cc(F)cc(F)c3)cc21)N1CCC1` [Example 532, 1-(Azetidin-1-yl)-2-[3-chloro-6-(3,5-difluorophenyl)pyrrolo[3,2-b]pyridin-1-yl]ethanone], 50.1 nM.
For `CCc1cccc(-c2cnc3c(Cl)cn(CC(=O)N4CCC4)c3c2)c1` [Example 533, 1-(Azetidin-1-yl)-2-[3-chloro-6-(3-ethylphenyl)pyrrolo[3,2-b]pyridin-1-yl]ethanone] the value was 50.1 nM; for `CN(C)C(=O)Cn1cc(Cl)c2ncc(-c3cccc(Cl)c3)cc21` [Example 534, 2-[3-Chloro-6-(3-chlorophenyl)pyrrolo[3,2-b]pyridin-1-yl]-N,N-dimethyl-acetamide], 31.6 nM; for `O=C(Cn1cc(Cl)c2ncc(-c3ccccc3F)cc21)N1CC(F)C1` [Example 535, 2-[3-Chloro-6-(2-fluorophenyl)pyrrolo[3,2-b]pyridin-1-yl]-1-(3-fluoroazetidin-1-yl)ethanone], 200 nM.
With `Cc1cccc(-c2cnc3c(Cl)cn(CC(=O)N4CC(F)C4)c3c2)c1F` [Example 536, 2-[3-Chloro-6-(2-fluoro-3-methyl-phenyl)pyrrolo[3,2-b]pyridin-1-yl]-1-(3-fluoroazetidin-1-yl)ethanone], the IC50 is 25.1 nM.
Consider `O=C(Cn1cc(Cl)c2ncc(-c3cc(F)cc(F)c3)cc21)N1CC(F)C1` [Example 537, 2-[3-Chloro-6-(3,5-difluorophenyl)pyrrolo[3,2-b]pyridin-1-yl]-1-(3-fluoroazetidin-1-yl)ethanone], for which the IC50 is 12.6 nM.
Under `O=C(Cn1cc(Cl)c2ncc(-c3cccc(C(F)(F)F)c3F)cc21)N1CC(F)C1` [Example 538, 2-[3-Chloro-6-[2-fluoro-3-(trifluoromethyl)phenyl]pyrrolo[3,2-b]pyridin-1-yl]-1-(3-fluoroazetidin-1-yl)ethanone] stands 79.4 nM; under `Cc1c(F)ccc(-c2cnc3c(Cl)cn(CC(=O)N4CC(F)C4)c3c2)c1F` [Example 539, 2-[3-Chloro-6-(2,4-difluoro-3-methyl-phenyl)pyrrolo[3,2-b]pyridin-1-yl]-1-(3-fluoroazetidin-1-yl)ethanone], 25.1 nM.
For `O=C(Cn1cc(Cl)c2ncc(-c3ccc(F)c(Cl)c3)cc21)N1CC(F)C1` [Example 540, 2-[3-Chloro-6-(3-chloro-4-fluoro-phenyl)pyrrolo[3,2-b]pyridin-1-yl]-1-(3-fluoroazetidin-1-yl)ethanone] the value was 25.1 nM; for `O=C(Cn1cc(Cl)c2ncc(-c3cccc(Cl)c3F)cc21)N1CC(F)C1` [Example 541, 2-[3-Chloro-6-(3-chloro-2-fluoro-phenyl)pyrrolo[3,2-b]pyridin-1-yl]-1-(3-fluoroazetidin-1-yl)ethanone], 39.8 nM; for `CCc1cccc(-c2cnc3c(Cl)cn(CC(=O)N4CC(F)C4)c3c2)c1` [Example 542, 2-[3-Chloro-6-(3-ethylphenyl)pyrrolo[3,2-b]pyridin-1-yl]-1-(3-fluoroazetidin-1-yl)ethanone], 31.6 nM.
Under `O=C(Cn1cc(Cl)c2ncc(-c3cccc(F)c3)cc21)N1CC(F)C1` [Example 543, 2-[3-Chloro-6-(3-fluorophenyl)pyrrolo[3,2-b]pyridin-1-yl]-1-(3-fluoroazetidin-1-yl)ethanone] stands 20 nM; under `CN(C)C(=O)Cn1cc(Cl)c2ncc(-c3cccc(Cl)c3F)cc21` [Example 544, 2-[3-Chloro-6-(3-chloro-2-fluoro-phenyl)pyrrolo[3,2-b]pyridin-1-yl]-N,N-dimethyl-acetamide], 31.6 nM; under `O=C(Cn1cc(Cl)c2ncc(-c3cccc(Cl)c3)cc21)N1CC(F)C1` [Example 545, 2-[3-Chloro-6-(3-chlorophenyl)pyrrolo[3,2-b]pyridin-1-yl]-1-(3-fluoroazetidin-1-yl)ethanone], 12.6 nM.
Consider `O=C(Cn1cc(Cl)c2ncc(-c3cccc(C(F)F)c3)cc21)N1CC(F)C1` [Example 546, 2-[3-Chloro-6-[3-(difluoromethyl)phenyl]pyrrolo[3,2-b]pyridin-1-yl]-1-(3-fluoroazetidin-1-yl)ethanone], for which the IC50 was 39.8 nM.
For `Cc1cccc(-c2cnc3c(F)c(C)n(CC(=O)N4CCC4)c3c2)c1` [Example 547, 1-(Azetidin-1-yl)-2-[3-fluoro-2-methyl-6-(m-tolyl)pyrrolo[3,2-b]pyridin-1-yl]ethanone], the IC50 was 398 nM.
Under `Cc1cn(CC(=O)N2CCC2)c2cc(-c3ccc(F)c(F)c3)cnc12` [Example 548, 1-(Azetidin-1-yl)-2-[6-(3,4-difluorophenyl)-3-methyl-pyrrolo[3,2-b]pyridin-1-yl]ethanone] stands 79.4 nM; under `Cc1cn(CC(=O)N(C)C)c2cc(-c3ccc(F)c(F)c3)cnc12` [Example 549, 2-[6-(3,4-Difluorophenyl)-3-methyl-pyrrolo[3,2-b]pyridin-1-yl]-N,N-dimethyl-acetamide], 79.4 nM; under `Cc1cccc(-c2cnc3c(C)cn(CC(=O)N4CC(F)C4)c3c2)c1` [Example 550, 1-(3-Fluoroazetidin-1-yl)-2-[3-methyl-6-(m-tolyl)pyrrolo[3,2-b]pyridin-1-yl]ethanone], 126 nM.
Consider `Cc1cn(CC(=O)N2CC(F)C2)c2cc(-c3ccc(F)c(F)c3)cnc12` [Example 551, 2-[6-(3,4-Difluorophenyl)-3-methyl-pyrrolo[3,2-b]pyridin-1-yl]-1-(3-fluoroazetidin-1-yl)ethanone], for which the IC50 is 63.1 nM.
